{
  "source": "patent US9303069B2",
  "about": "“Peptides for treating cancer” (University of Mississippi Medical Center, priority 2014, dated 2016)",
  "key": {"BRCA1-IRIS": {"test_system": "BRCA1-IRIS", "assay": "BRCA1-IRIS expression in breast cells (Western)", "type": "cell-based, human", "protocol": "HME and HME/IRIS cells were treated with 10, 20 and 50 μM of paclitaxel for 24 hours. Compared to HME/IRIS cells, untreated HME cells express very low level of BRCA1-IRIS (FIG. 68, left). […] Both EGF and NRG1, which were secreted at higher levels from untreated HME/IRIS cells, remained high after paclitaxel (until ˜50 μM, FIG. 68, left), whereas in HME cells, both were induced by low paclitaxel treatment (FIG. 68, left). Consistently, in HME/IRIS cells EGFR was phosphorylated on Y1173 (activated by EGF when EGFR is in complex with ErbB2) and ErbB2 on Y1248 (activated by NRG1 when ErbB2 is in complex with ErbB3) remained the same after paclitaxel treatment (until ˜50 μM, FIG. 68, left). Phosphorylated EGFR-Y1173 and ErbB2-Y1248 was only observed in paclitaxel treated HME cells, especially at low concentration (FIG. 68, left).\nSurvived/paclitaxel-resistant cells were then propagated in the absence of paclitaxel and analyzed. Again, the intrinsically high level of BRCA1-IRIS was not affected by paclitaxel in HME/IRIS cells (FIG. 69, left). […] The expressions of EGFR, ErbB2 and ErbB3 were high in HME/IRIS and HME cells (FIG. 69, left). Despite an intrinsic increase in HME/IRIS and paclitaxel-acquired increase in HME cells in AKT activation, FOXO inactivation/degradation and thus activation increase in CyclinD1, survivin, Bcl-2, Bcl-xL and NF-κB was observed (FIG. 69, right).\nTo test that hypothesis, an intron 11 peptide (right in FIG. 26) fused to a cell/nucleus penetrating signal at its N-terminus (left in FIG. 26) was synthesized (hereafter IRIS peptide). First, to assess the effect of this IRIS peptide, equal numbers of HME, HME/IRIS, MDA-MB-231, MDA-MB-468 and BT549 cells were exposed to increasing concentrations of scrambled or IRIS peptide for 48 hours. […] It is possible that preventing BRCA1-IRIS-X complex formation destabilizes BRCA1-IRIS and perhaps leads to its degradation.\n(§1) To investigate whether inactivating BRCA1-IRIS could sensitize TNBC to paclitaxel-induced cell death, HME cells were exposed to 0.5 μM, while HME/IRIS, MDA-MB-231, MDA-MB-468 and BT549 cells were exposed to 5 μM of IRIS peptide alone or with 5, 10 or 20 μM of paclitaxel for 24 hours. […] Again, IRIS peptide alone at these concentrations led to 50% reduction in survival of all cell lines. […] Indeed, in the presence of IRIS peptide >60%, >70% and >90% reduction in the survival of all cell lines in the presence of 5, 10 and 20 μM of paclitaxel, respectively (FIG. 84).\nTo relate the effect of IRIS peptide on cell survival to the effect of BRCA1-IRIS on AKT and ERK survival pathways, MDA-MB-231 and MDA-MB-468 were treated with vehicle, 5 μM of IRIS peptide, 10 μM LY294002, 10 μM PD98059 for 24 hours or were transfected with BRCA1-IRIS siRNA for 72 hours."}, "HME/IRIS cells": {"test_system": "HME/IRIS cells", "assay": "cells", "conditions": "Homo sapiens, read-out: IC50 of paclitaxel (viability)", "quoted_text": "(§2) All cell lines were exposed to increasing concentrations of paclitaxel and BRCA1-IRIS expression, and cells' viability was then measured.\n(§3) Cell viability measurement. Cell viability under different experimental conditions was determined using the MTS assay. Briefly, cells (2.5×10^4 cells per well) were seeded in 96-well plates and incubated overnight at 37° C. in 10% humidified CO2 atmosphere. The next day they were incubated with varying concentration of peptide, or inhibitors for 24 hours at 37° C. Cell viability was determined using cell Titer 96® Aqueous (Promega, Madison, Wis., USA) following manufacturer's instructions. Cell viability (%) was expressed as a ratio of treated cells to control cells×100. […] Each experiment was done in triplicate, repeated three separate times."}, "BRCA1-IRIS and survivin": {"test_system": "BRCA1-IRIS and survivin", "assay": "IHC of MDA-MB-468 tumors for BRCA1-IRIS and survivin", "type": "in vivo, mice", "conditions": "MDA-MB-468 tumors after treatment", "excerpt": "To study that on the molecular level, sections from these tumors were stained with H&E or for BRCA1-IRIS or survivin using immunohistochemistry. […] Accordingly, it is proposed that inactivating BRCA1-IRIS in TNBC patients might sensitize to lower paclitaxel concentrations to avoid the adverse side effects and also to prevent the recurrence of these tumors at a later point.\nImmunohistochemistry (IHC). Breast tissue microarrays comprised of normal, DCIS, invasive and metastatic were purchased from US Biomax, Inc. Paraffin embedded tissue sections were de-waxed in xylene and rehydrated in alcohol. Antigen-retrieval: for FOXO3a and survivin was by heating the slides in citrate buffer (10 μM, pH 6.0) using microwave (Power level 4) for 10 minutes, for BRCA1-IRIS by incubating slides in pepsin (10 μM) for 20 min at 37° C. Endogenous peroxidase activity was suppressed by treating the slides with 3% H2O2 for 10 min. Slides were then incubated for 1 hour at room temperature with antibodies to human FOXO3a or survivin (Cell Signaling Technology, USA 1:400), or overnight at 4° C. with monoclonal anti-human BRCA1-IRIS (1:75). Vectastain Elite ABC Kit was used to develop the staining using horseradish peroxidase labeled secondary antibodies (1 hour at room temperature)."}, "MDA-MB-231 cells": {"test_system": "MDA-MB-231 cells", "assay": "cells", "conditions": "Homo sapiens, MDA-MB-231, read-out: IC50 of paclitaxel (viability)", "quoted_text": "as §2\n(§4) Stable clones were then exposed to 0, 10 or 20 μM of EGFR (Erlotinib), ErbB2 (CP-724714), PI3′K/AKT (LY294002), p38 (SB203580), ERK (PD98059) or JNK (SP600125) inhibitors for 24 hours."}, "HME cells": {"test_system": "HME cells", "assay": "cells", "conditions": "Homo sapiens, read-out: IC50 of paclitaxel (viability)", "quoted_text": "as §2, §3"}, "BT549 cells": {"test_system": "BT549 cells", "assay": "cells", "conditions": "Homo sapiens, BT-549, read-out: IC50 of paclitaxel (viability)", "quoted_text": "as §2, §3"}, "MDA-MB-468 cells": {"test_system": "MDA-MB-468 cells", "assay": "cells", "conditions": "Homo sapiens, MDA-MB-468, read-out: IC50 of paclitaxel (viability)", "quoted_text": "as §2, §4"}, "[1]": {"test_system": "HME, HME/IRIS, MDA-MB-231, MDA-MB-468 and BT549 cells", "assay": "Survival of breast cell lines with IRIS peptide, paclitaxel or both", "type": "cell-based, human", "conditions": "all cell lines, 24 hours", "protocol": "as §1\nCell viability measurement. Cell viability under different experimental conditions was determined using the MTS assay. Briefly, cells (2.5×10^4 cells per well) were seeded in 96-well plates and incubated overnight at 37° C. in 10% humidified CO2 atmosphere. The next day they were incubated with varying concentration of peptide, or inhibitors for 24 hours at 37° C. Cell viability was determined using cell Titer 96® Aqueous (Promega, Madison, Wis., USA) following manufacturer's instructions. Cell viability (%) was expressed as a ratio of treated cells to control cells×100. Growth inhibition was also determined by manually counting cells in five different microscopic fields. Change in cell numbers (fold) was expressed as a ratio of the means of these recording of treated cells compared to control cells×100. Each experiment was done in triplicate, repeated three separate times."}, "MDA-MB-468 tumors": {"test_system": "MDA-MB-468 tumors", "assay": "In vivo efficacy on established MDA-MB-468 tumors", "design": "species or system mice", "conditions": "12 days; paclitaxel 10 mg/kg i.p., every third day, four injections", "protocol": "Nude 6-8 weeks female mice were injected with 2×10^6 of MDA-MB-468 cells in the 2nd left and 4th right mammary fat pads. When all tumors reached ˜0.1 cm^3 in volume, mice were divided into four groups, one received vehicles (i.e. DMSO injected intraperitoneally [i.p.] and scrambled peptide injected directly into tumors [i.t.]), another received paclitaxel (10 mg/kg, i.p.), the third received IRIS peptide at (10 mg/kg, i.t.), and the last received paclitaxel and IRIS peptide at half the concentrations, injected as above. Drugs were delivered every third day for total of four injections.\nIn Vivo efficacy of BRCA1-IRIS-inhibitory peptide. Six to eight week old female athymic SCID mice were injected in the second right and the fourth left mammary gland with 2.5×10^6 of MDAMB468 cells. Tumor growth was followed daily until tumors reached 100 mm^3. At this time mice were randomly grouped into four different groups that were injected: a) with DMSO (i.p.) and scrambled peptide (10 mg/kg) intra-tumoral (i.t.), b) injected with IRIS peptide (10 mg/kg, i.t.), c) injected with paclitaxel (10 mg/kg, i.p.), d) injected with IRIS peptide (5 mg/kg, i.t.), and paclitaxel (5 mg/kg, i.p.). […] Change in tumor volume was measured to monitor the efficacy of the treatments using caliper and is represented as percentage of volume at day 0 of treatment. […]"}},
  "data": [
    {"smiles": "CC(=O)O[C@H]1C(=O)[C@@]2(C)[C@H]([C@H](OC(=O)c3ccccc3)[C@]3(O)C[C@H](OC(=O)[C@H](O)[C@@H](NC(=O)c4ccccc4)c4ccccc4)C(C)=C1C3(C)C)[C@]1(OC(C)=O)CO[C@@H]1C[C@@H]2O", "note": "[paclitaxel]", "values": [
      {"measurement": "BRCA1-IRIS expression in HME cells", "setting": "BRCA1-IRIS; 1 μM of paclitaxel for 1 or 3 weeks", "value": "acquired-induction in BRCA1-IRIS expression was detected"},
      {"measurement": "BRCA1-IRIS expression in HME cells", "setting": "BRCA1-IRIS; 10 and 20 μM paclitaxel, 24 hours", "value": "significantly upregulated BRCA1-IRIS expression"},
      {"measurement": "BRCA1-IRIS expression in HME/IRIS cells", "setting": "BRCA1-IRIS; paclitaxel 24 hours, until ~50 μM", "value": "did not alter the expression of BRCA1-IRIS"},
      {"measurement": "IC50", "setting": "HME/IRIS cells", "value": "~50", "unit": "µM"},
      {"measurement": "BRCA1-IRIS and survivin expression in tumors (IHC)", "setting": "BRCA1-IRIS and survivin", "value": "significantly increase BRCA1-IRIS and survivin expression"},
      {"measurement": "IC50", "setting": "MDA-MB-231 cells", "value": "> 50", "unit": "µM"},
      {"measurement": "IC50", "setting": "HME cells", "value": "~5", "unit": "µM"},
      {"measurement": "IC50", "setting": "BT549 cells", "value": "~35", "unit": "µM"},
      {"measurement": "IC50", "setting": "MDA-MB-468 cells", "value": "< 20", "unit": "µM"},
      {"measurement": "reduction in survival", "setting": "[1]; paclitaxel alone at 5 μM", "value": "~50", "unit": "%"},
      {"measurement": "reduction in survival", "setting": "[1]; paclitaxel alone at 10 μM", "value": "~60", "unit": "%"},
      {"measurement": "reduction in survival", "setting": "[1]; paclitaxel alone at 20 μM", "value": "~70", "unit": "%"},
      {"measurement": "tumor size relative to control tumors", "setting": "MDA-MB-468 tumors", "value": "half the size of the control tumors"}
    ]}
  ]
}
